US7846934B2, “Furo[3,2-B] pyrrol-3-one derivatives and their use as cysteinyl proteinase inhibitors” (Amura Therapeutics Limited, priority 2007, dated 2010)

Experiments:
[1] = Liver microsomal incubations (HLM stability); conditions: human liver microsomes, 25 μM
[2] = LogD determinations (shake-flask, octanol/PBS); conditions: 1-octanol/phosphate buffered saline, pH 7.4
Method: LogD(PBS) determinations were performed in 96 well microtitre plates using a miniaturised “shake-flask” method. […] The plates were then capped and mixed vigorously for 1 hour on a microtitre plate shaker, after which they were left to stand, allowing the PBS and octanol phases to separate. The PBS layer was analysed by reverse phase HPLC with mass spectrometric detection, using single ion monitoring of the [M+H]^+ species.
[formula] Where AUCstd and AUCpbs are the peak areas from the standard and test ion chromatograms respectively.

[3] = Plasma incubations (human plasma stability); conditions: 37° C., 25 μM
Method: Human and rat plasma were purchased from Innovative Research Inc. (Southfield. Mich., USA). […] Aliquots were removed at 2 and 60 minutes and quenched with an equal volume of cold acetonitrile. After mixing vigorously, the precipitated protein matter was removed by filtration (Multiscreen Solvinert filter plates, Millipore, Bedford, Mass., USA) and the filtrate analysed by reverse phase HPLC with mass spectrometric detection, using single ion monitoring of the [M+H]^+ species. Metabolic turnover was determined by comparison of peak areas from the ion chromatograms of the parent compound at 2 and 60 minutes and expressed as percent remaining at 1 hour.

[4] = biological target: T1, Human recombinant cathepsin K (Homo sapiens, UniProt P43235); assay: In vitro cathepsin Ki inhibition measurements; type: biochemical; conditions: Table 1; read-out: In vitro Ki (nM) vs Cath K
T1 construct: B. Turk, Josef Stefan Institute, Ljubljana, Slovenia (academic supplier)
T1 sequence (P43235 115-329): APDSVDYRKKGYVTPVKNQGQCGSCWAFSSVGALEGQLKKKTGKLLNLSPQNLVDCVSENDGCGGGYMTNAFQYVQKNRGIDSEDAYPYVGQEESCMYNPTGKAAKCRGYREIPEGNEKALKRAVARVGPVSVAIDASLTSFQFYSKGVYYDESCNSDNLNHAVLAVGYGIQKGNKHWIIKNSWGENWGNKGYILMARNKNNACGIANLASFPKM
Method: Stock solutions of substrate or inhibitor were made up to 10 mM in 100% dimethylsulfoxide (DMSO) (Rathburns, Glasgow, U.K.) and diluted as appropriately required. In all cases the DMSO concentration in the assays was maintained at less than 1% (vol./vol.). The equilibrium inhibition constants (Ki^SS) for each compound were measured under steady-state conditions monitoring enzyme activity as a function of inhibitor concentration. The values were calculated on the assumption of pure competitive behaviour (Comish-Bowden, A. Fundamentals of enzyme kinetics Portland Press; 1995, 93-128).
The apparent inhibition constant (Ki) for each compound was determined on the basis that inhibition was reversible and occurred by a pure-competitive mechanism. The Ki values were calculated, from the dependence of enzyme activity as a function of inhibitor concentration, by direct regression analysis (Prism v 3.02) using Equation 2 (Cornish-Bowden, A., 1995).
In situations where the apparent dissociation constant (Ki^app) approached the enzyme concentrations, the Ki^app values were calculated using a quadratic solution in the form described by Equation 3 (Morrison, J. F. Trends Biochem. Sci., 7, 102-105, 1982; Morrison, J. F. Biochim. Biophys. Acta, 185 269-286, 1969; Stone, S. R. and Hofsteenge, J. Biochemistry, 25, 4622-4628, 1986).
Curves were fitted by non-linear regression analysis (Prism) using a fixed value for the enzyme concentration. Equation 4 was used to account for the substrate kinetics, where ‘Ki’ is the inhibition constant, ‘[S0]’ is the initial substrate concentration and ‘KM^app’ is the apparent macroscopic binding (Michaelis) constant for the substrate (Morrison, 1982).

human osteoclasts [5] = assay: Human osteoclast resorption assay; type: cell-based; conditions: for inhibition at 1 µM: Homo sapiens, Osteoclast, read-out: Cell-based % Inh. @ 1 μM Human
Method: Bone resorption was studied using a model where human osteoclast precursor cells were cultured on bovine bone slices for 9 days and allowed to differentiate into bone-resorbing osteoclasts. The formed mature osteoclasts were then allowed to resorb bone. The assay was performed by Pharmatest Services Ltd, Itäinen Pitkakatu 4C, Turku, Finland. After the culture period, bone collagen degradation products were quantified from the culture medium as an index of bone resorption. Inhibitor compounds were added into the cell cultures after the differentiation period and their effects on the resorbing activity of mature osteoclasts were determined. The studies included a baseline group without added compounds and a positive control group where a potent cathepsin K inhibitor E-64 was added.
Human peripheral blood monocytes were suspended to culture medium and allowed to attach to bovine bone slices. The bone slices were transferred into 96-well tissue culture plates containing culture medium with appropriate amounts of important growth factors favouring osteoclast differentiation, including M-CSF, RANK-ligand and TGF-β. The cells were incubated in a CO2 incubator in humidified atmosphere of 95% air and 5% carbon dioxide at 37° C. At day 7 when osteoclast differentiation was complete, the culture medium was replaced with culture medium containing conditions favouring osteoclast activity. The cell culture was continued for an additional 2 days, during which the formed mature osteoclasts were allowed to resorb bone in the presence of vehicle, control inhibitor (E64) or test compounds. At the end of the culture, bone collagen degradation products released into the culture medium were determined using a commercially available ELISA method (CrossLaps® for culture, Nordic Bioscience, Herlev, Denmark) as an index of bone resorption (see Bagger, Y. Z. et al, J. Bone. Miner. Res. 14 (suppl. 1), S370).

rat osteoclasts = assay: Rat osteoclast resorption assay; conditions: read-out: Cell-based % Inh. @ 1 μM Rat
Method: Bone resorption was studied using a model where mature osteoclasts derived from rat bone were cultured on bovine bone slices for 3 days and allowed to resorb bone in the presence of inhibitor, positive control (E-64) or vehicle. More specifically, tibia, femori and humeri were removed from 1 day old rat pups. The endosteal surfaces of the bones were scraped with a scapelto release osteoclasts into the culture medium and the osteoclasts were allowed to attach to bovine bone slices. After the culture period, bone collagen degradation products were quantified from the culture medium as an index of bone resorption. The assay was performed by Pharmatest Services Ltd, Itäinen Pitkakatu 4C, Turku, Finland.

human osteoclasts [6] = conditions: literature value; cited from earlier work

| Molecule | HLM % rem. @ 1 hr [1] | logD at 1 h [2] | Human Plasma Stability % rem. @ 1 H [3] | Ki [4] | LogD pH 7.4 | Cell-based % Inh. @ 1 μM Human (human osteoclasts [5]) | inhibition at 1 µM (human osteoclasts [5]) | inhibition at 1 µM (rat osteoclasts) | Cell-based % Inh. @ 1 μM Human (Lit.) (human osteoclasts [6]) |
| --- | --- | --- | --- | --- | --- | --- | --- | --- | --- |
| N-((S)-1-cyclopentyl-2-oxo-2-((3aS,6aR)-3-oxodihydro-2H-furo[3,2-b]pyrrol-4(5H,6H,6aH)-yl)ethyl)-4-(4-propylpiperazin-1-yl)benzamide [Example 17] |  |  |  | 7 nM | 1.55 | >80% |  |  |  |
| CN1CCN(c2ccc(C(=O)N[C@H](C(=O)N3CC[C@H]4OCC(=O)[C@H]43)C3CCCCC3)cc2)CC1 [Example 2, N-((S)-1-cyclohexyl-2-oxo-2-((3aS,6aR)-3-oxodihydro-2H-furo[3,2-b]pyrrol-4(5H,6H,6aH)-yl)ethyl)-4-(4-methylpiperazin-1-yl)benzamide] | 91% | 1.21 | 99% | 14 nM |  | 76% | 74 to 76% | 0% |  |
| CC(C)C[C@H](NC(=O)c1ccc(N2CCN(C)CC2)cc1)C(=O)N1CC[C@H]2OCC(=O)[C@H]21 [Example 1, 4-(4-methylpiperazin-1-yl)-N-((S)-4-methyl-1-oxo-1-((3aS,6aR)-3-oxodihydro-2H-furo[3,2-b]pyrrol-4(5H, 6H, 6aH)-yl)pentan-2-yl)benzamide, reference compound] | 95% |  | 95% |  |  |  | 55% | 43% |  |

Second part, led by results:

| HLM % rem. @ 1 hr [1] | logD at 1 h [2] | Human Plasma Stability % rem. @ 1 H [3] | Ki [4] | LogD pH 7.4 | Molecule | Cell-based % Inh. @ 1 μM Human (human osteoclasts [5]) | inhibition at 1 µM (human osteoclasts [5]) | inhibition at 1 µM (rat osteoclasts) | Cell-based % Inh. @ 1 μM Human (Lit.) (human osteoclasts [6]) |
| --- | --- | --- | --- | --- | --- | --- | --- | --- | --- |
| 91% | 0.78 | 97% | 2 nM |  | CN1CCN(c2ccc(C(=O)N[C@H](C(=O)N3CC[C@H]4OCC(=O)[C@H]43)C3CCCC3)cc2)CC1 [Example 3, N-((S)-1-cyclopentyl-2-oxo-2-((3aS,6aR)-3-oxodihydro-2H-furo[3,2-b]pyrrol-4(5H,6H,6aH)-yl)ethyl)-4-(4-methylpiperazin-1-yl)benzamide] | 74% | 74 to 76% | 60% |  |
| 70% |  | 75% |  |  | CC(C)C[C@H](NC(=O)c1ccc(C(C)(C)C)cc1)C(=O)N1CC[C@H]2OCC(=O)[C@H]21 [reference compound] |  |  |  | Lit. 60% |
